Test in all cases: Kinase panel profiling at 1 µmol/L (MSA or IMAP), percentage inhibition
Holding throughout (type): biochemical

The target of test [1] is panel of 255 wild-type kinases (Homo sapiens, UniProt P11309). The note with it: read-out: %-inhibition at 1 µmol/L, PIM1.
The target in test [2] is T1, panel of 255 wild-type kinases (Homo sapiens, UniProt Q12866).
T1 sequence (Q12866 21-999): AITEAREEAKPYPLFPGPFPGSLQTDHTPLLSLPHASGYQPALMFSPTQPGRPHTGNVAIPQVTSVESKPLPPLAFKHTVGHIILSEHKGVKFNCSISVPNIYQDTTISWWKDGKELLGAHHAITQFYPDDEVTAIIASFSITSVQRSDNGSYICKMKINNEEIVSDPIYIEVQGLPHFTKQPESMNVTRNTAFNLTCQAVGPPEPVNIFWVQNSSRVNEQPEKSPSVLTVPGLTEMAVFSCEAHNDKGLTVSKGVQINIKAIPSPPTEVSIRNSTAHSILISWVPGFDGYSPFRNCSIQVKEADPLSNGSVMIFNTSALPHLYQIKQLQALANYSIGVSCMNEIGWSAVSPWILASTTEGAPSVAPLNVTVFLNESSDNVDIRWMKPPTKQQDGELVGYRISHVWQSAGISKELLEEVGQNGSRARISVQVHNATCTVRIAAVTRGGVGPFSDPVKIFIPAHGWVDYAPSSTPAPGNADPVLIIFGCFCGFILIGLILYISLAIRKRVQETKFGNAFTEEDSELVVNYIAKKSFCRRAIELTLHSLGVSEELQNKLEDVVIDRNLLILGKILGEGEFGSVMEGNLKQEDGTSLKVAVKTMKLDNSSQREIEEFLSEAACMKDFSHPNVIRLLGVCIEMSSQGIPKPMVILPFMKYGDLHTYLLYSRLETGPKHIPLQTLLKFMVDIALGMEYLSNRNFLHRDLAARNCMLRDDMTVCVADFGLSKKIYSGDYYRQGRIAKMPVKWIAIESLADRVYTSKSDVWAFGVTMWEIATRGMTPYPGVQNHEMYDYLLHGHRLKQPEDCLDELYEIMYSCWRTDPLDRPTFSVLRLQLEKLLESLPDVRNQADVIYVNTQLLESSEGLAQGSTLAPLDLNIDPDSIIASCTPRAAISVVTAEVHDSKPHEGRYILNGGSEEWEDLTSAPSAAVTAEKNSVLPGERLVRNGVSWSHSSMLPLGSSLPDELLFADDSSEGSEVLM
Conditions: read-out: %-inhibition, MER.

The target of test [3] is T2, panel of 255 wild-type kinases (Homo sapiens, UniProt Q92630).
T2 sequence (Q92630 1-601): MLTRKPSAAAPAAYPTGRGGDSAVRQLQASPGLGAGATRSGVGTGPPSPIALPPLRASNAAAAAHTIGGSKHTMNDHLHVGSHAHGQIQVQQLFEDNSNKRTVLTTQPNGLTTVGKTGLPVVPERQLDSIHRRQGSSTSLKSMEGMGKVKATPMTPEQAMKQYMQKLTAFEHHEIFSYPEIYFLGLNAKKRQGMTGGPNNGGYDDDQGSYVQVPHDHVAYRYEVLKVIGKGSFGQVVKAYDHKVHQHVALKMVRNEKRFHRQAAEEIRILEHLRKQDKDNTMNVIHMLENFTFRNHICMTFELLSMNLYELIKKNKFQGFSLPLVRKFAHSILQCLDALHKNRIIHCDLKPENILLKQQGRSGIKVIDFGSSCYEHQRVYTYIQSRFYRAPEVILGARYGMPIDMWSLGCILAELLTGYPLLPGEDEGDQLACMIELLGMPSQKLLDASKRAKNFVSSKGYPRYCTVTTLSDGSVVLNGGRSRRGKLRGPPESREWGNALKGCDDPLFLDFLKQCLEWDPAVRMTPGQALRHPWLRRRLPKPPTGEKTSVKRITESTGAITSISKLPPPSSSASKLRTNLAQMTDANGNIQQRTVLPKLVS
Conditions: read-out: %-inhibition at 1 µmol/L, DYRK2.

For test [4], the target named is T3, panel of 255 wild-type kinases (Homo sapiens, UniProt Q9UF33).
T3 sequence (Q9UF33 23-1036): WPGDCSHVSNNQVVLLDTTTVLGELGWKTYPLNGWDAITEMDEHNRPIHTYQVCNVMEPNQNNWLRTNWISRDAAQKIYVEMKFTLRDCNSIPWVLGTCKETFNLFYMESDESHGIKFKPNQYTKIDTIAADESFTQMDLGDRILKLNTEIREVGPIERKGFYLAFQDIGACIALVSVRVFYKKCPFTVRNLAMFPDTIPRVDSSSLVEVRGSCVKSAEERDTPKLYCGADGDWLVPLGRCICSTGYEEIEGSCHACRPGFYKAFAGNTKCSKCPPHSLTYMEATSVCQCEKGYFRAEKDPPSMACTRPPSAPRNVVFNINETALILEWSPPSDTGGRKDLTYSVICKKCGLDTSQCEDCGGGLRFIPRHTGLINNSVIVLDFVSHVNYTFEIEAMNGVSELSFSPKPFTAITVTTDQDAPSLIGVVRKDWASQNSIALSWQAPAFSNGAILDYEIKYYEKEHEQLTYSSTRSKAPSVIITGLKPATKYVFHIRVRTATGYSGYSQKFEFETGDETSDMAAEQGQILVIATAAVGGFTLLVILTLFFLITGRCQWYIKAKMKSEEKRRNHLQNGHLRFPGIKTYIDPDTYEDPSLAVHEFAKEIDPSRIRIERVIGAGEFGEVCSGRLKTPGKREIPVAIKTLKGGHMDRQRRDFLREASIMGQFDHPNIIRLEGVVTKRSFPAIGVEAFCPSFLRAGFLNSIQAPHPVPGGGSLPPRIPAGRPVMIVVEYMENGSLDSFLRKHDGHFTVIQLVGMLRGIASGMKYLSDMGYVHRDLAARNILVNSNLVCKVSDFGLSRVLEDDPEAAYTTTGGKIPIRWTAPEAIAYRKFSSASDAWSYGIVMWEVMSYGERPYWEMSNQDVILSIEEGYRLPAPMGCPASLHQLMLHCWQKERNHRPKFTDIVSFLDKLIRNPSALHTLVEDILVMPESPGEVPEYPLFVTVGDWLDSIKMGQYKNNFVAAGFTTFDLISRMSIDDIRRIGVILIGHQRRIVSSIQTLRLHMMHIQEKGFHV
The note with it: read-out: %-inhibition at 1 µmol/L, EPHA6.

Setting [5] is: kinase PIM1, 1 µmol/L single concentration.
Setting [6] is: MER, 1 µmol/L single concentration.
Setting [7] is: kinase DYRK2, 1 µmol/L single concentration.
Setting [8] is: kinase EPHA6, 1 µmol/L single concentration.

Where two headings read alike, the source gives them in different places.

Turning to `Cc1nc(NC(=O)N2CCC[C@H]2C(N)=O)sc1-c1ccnc(C(C)(C)C(F)(F)F)c1` [alpelisib], the inhibition at 1 µM in test [1] (setting [5]) was 4%; in test [2] (setting [6]) it was -3.44%; in test [3] (setting [7]) it was 7%; in test [4] (setting [8]), 5.35%.
The matching figures for `Cn1cc(-c2cc3c(N4CCN(c5ncc([C@@](C)(N)c6ccc(F)cc6)cn5)CC4)ncnn3c2)cn1` [avapritinib]: 24%, 17%, 56% and 7%.
The matching figures for `Cn1cnc2c(F)c(Nc3ccc(Br)cc3F)c(C(=O)NOCCO)cc21` [binimetinib]: -16%, -2.19%, 6.52% and 2.34%.
With `CNC(=O)c1ccc(-c2cnc3ncc(Cc4ccc5ncccc5c4)n3n2)cc1F` [capmatinib], the inhibition at 1 µM was -9% in test [1], 13% in test [2], 8% in test [3] and -2% in test [4].
In the case of `COc1cc2ncnc(Nc3ccc(F)c(Cl)c3)c2cc1NC(=O)/C=C/CN1CCCCC1` [dacomitinib], the inhibition at 1 µM in test [1] (setting [5]) stood at 32%; in test [2] (setting [6]) it was 19%; in test [3] (setting [7]), 38%; in test [4] (setting [8]), 98%.
In the case of `C[C@H](Nc1ncnc2nc[nH]c12)c1cc2cccc(Cl)c2c(=O)n1-c1ccccc1` [duvelisib], the inhibition at 1 µM in test [1] (setting [5]) was -0.908%; in test [2] (setting [6]) it was -1%; in test [3] (setting [7]) it was 8%; in test [4] (setting [8]), 5.71%.
The matching figures for `COC(=O)N[C@@H](C)CNc1nccc(-c2cn(C(C)C)nc2-c2cc(Cl)cc(NS(C)(=O)=O)c2F)n1` [encorafenib]: 10%, 0.281%, 11% and 17%.
The matching figures for `CN1CCN(c2ccc(C(=O)Nc3n[nH]c4ccc(Cc5cc(F)cc(F)c5)cc34)c(NC3CCOCC3)c2)CC1` [entrectinib]: -6%, 61%, 11% and 44%.
Turning to `CCc1nc(C(N)=O)c(Nc2ccc(N3CCC(N4CCN(C)CC4)CC3)c(OC)c2)nc1NC1CCOCC1` [gilteritinib], the inhibition at 1 µM in test [1] (setting [5]) was determined as 6%; in test [2], 100%; in test [3] (setting [7]), 39%; in test [4] (setting [8]) it was 94%.
As for `CCN1CCN(c2ccc(Nc3cc(N(C)C(=O)Nc4c(Cl)c(OC)cc(OC)c4Cl)ncn3)cc2)CC1` [infigratinib], the inhibition at 1 µM in test [1] (setting [5]) was -2.33%; in test [2] (setting [6]) it was 15%; in test [3] (setting [7]) it was -3.43%; in test [4] (setting [8]), 28%.
Take `O=C(Nc1cnn2ccc(N3CCC[C@@H]3c3cc(F)ccc3F)nc12)N1CC[C@H](O)C1` [larotrectinib]: the inhibition at 1 µM in test [1] (setting [5]) is -5.32%; in test [2] (setting [6]), 6%; in test [3] (setting [7]), 6%; in test [4] (setting [8]) it was -0.585%.
For the compound `C[C@H]1Oc2cc(cnc2N)-c2c(nn(C)c2C#N)CN(C)C(=O)c2ccc(F)cc21` [lorlatinib], the inhibition at 1 µM in test [1] (setting [5]) was determined as 8%; in test [2] (setting [6]), 11%; in test [3] (setting [7]), 4.35%; in test [4] (setting [8]), 76%.
The matching figures for `CCN1C(=O)N(c2c(F)c(OC)cc(OC)c2F)Cc2cnc3[nH]c(CN4CCOCC4)cc3c21` [pemigatinib]: -7%, 7%, 12% and -3%.
On the same counts, the results for `FC(F)(F)c1ccc(CNc2ccc(Cc3c[nH]c4ncc(Cl)cc34)cn2)cn1` [pexidartinib] are -3.77%, 54%, 24% and 18%.
Regarding `CO[C@]1(C(=O)N[C@@H](C)c2ccc(-n3cc(F)cn3)nc2)CC[C@H](c2nc(C)cc(Nc3cc(C)[nH]n3)n2)CC1` [pralsetinib], the inhibition at 1 µM was -1.53% in test [1] (setting [5]), 79% in test [2] (setting [6]), -0.768% in test [3] (setting [7]) and 87% in test [4] (setting [8]).
`CCn1c(=O)c(-c2cc(NC(=O)Nc3ccccc3)c(F)cc2Br)cc2cnc(NC)cc21` [ripretinib]: the inhibition at 1 µM in test [1] (setting [5]) was -5%; in test [2] (setting [6]), -11%; in test [3] (setting [7]), 4.57%; in test [4] (setting [8]) it was 99%.
Regarding `COc1ccc(CN2C3CC2CN(c2ccc(-c4cc(OCC(C)(C)O)cn5ncc(C#N)c45)cn2)C3)cn1` [selpercatinib], the inhibition at 1 µM was -5.68% in test [1] (setting [5]), 88% in test [2] (setting [6]), 66% in test [3] (setting [7]) and 98% in test [4] (setting [8]).
The matching figures for `Cn1cnc2c(F)c(Nc3ccc(Br)cc3Cl)c(C(=O)NOCCO)cc21` [selumetinib]: -6%, 11%, -2.7% and 1%.
On the same counts, the results for `Cc1cc(Nc2ncnc3ccc(NC4=NC(C)(C)CO4)cc23)ccc1Oc1ccn2ncnc2c1` [tucatinib] are -3.59%, 12%, 8.45% and 2.19%.
The matching figures for `C=CC(=O)N1CCC([C@@H]2CCNc3c(C(N)=O)c(-c4ccc(Oc5ccccc5)cc4)nn32)CC1` [zanubrutinib]: -11%, 6%, 13% and 14%.

Values taken from PMC9516332 (Frontiers in Oncology, 2022).
